Laboratory results taken from paper PMC3968014, “Design and Synthesis of a Library of Lead-Like 2,4-Bisheterocyclic Substituted Thiophenes as Selective Dyrk/Clk Inhibitors” (PLoS ONE, 2014).

Columns and labels:
U2OS osteosarcoma cells = assay: Caspase-3 Assay (Caspase-Glo 3/7); type: cell-based; conditions: starved U2OS cells, 48 hours, vs DMSO control
Procedure: U2OS osteosarcoma cells were seeded in a 96 well flat bottom plate (15*10^3 cells/well). […] The induction of caspase-3/7 activity was measured using the Promega Caspase-Glo 3/7 assay system (Promega, LOT 0000054568). The resulting luciferase reaction signals that are proportional to the caspase induction were measured in a POLARstar plate reader (BMG Labtech, Offenburg, Germany). […] Values obtained for different compound concentrations were compared using the two-sided Student's t test; levels of significance thus obtained are indicated by asterisks.

DYRK3 = molecular target: T1, DYRK3 (Homo sapiens, UniProt O43781); assay: Selectivity panel DYRK3; type: biochemical; conditions: 5 µM inhibitor
T1 construct: purchased Life Technologies (Invitrogen SelectScreen); Dyrk1A, Dyrk2 and CK2α in-house or gifts

DYRK4 = molecular target: T2, DYRK4 (Homo sapiens, UniProt Q9NR20); assay: Selectivity panel DYRK4; type: biochemical; conditions: 5 µM inhibitor
T2 construct: purchased Life Technologies (Invitrogen SelectScreen); Dyrk1A, Dyrk2 and CK2α in-house or gifts

CLK4 = molecular target: T3, CLK4 (Homo sapiens, UniProt Q9HAZ1); assay: Selectivity panel CLK4; type: biochemical; conditions: 5 µM inhibitor
T3 construct: purchased Life Technologies (Invitrogen SelectScreen); Dyrk1A, Dyrk2 and CK2α in-house or gifts

MAPK1 (ERK2) = molecular target: T4, MAPK1 (ERK2) (Homo sapiens, UniProt P28482); assay: Selectivity panel MAPK1; type: biochemical; conditions: 5 µM inhibitor
T4 construct: purchased Life Technologies (Invitrogen SelectScreen); Dyrk1A, Dyrk2 and CK2α in-house or gifts

MAPK10 (JNK3) = molecular target: T5, MAPK10 (JNK3) (Homo sapiens, UniProt P53779); assay: Selectivity panel MAPK10; type: biochemical; conditions: 5 µM inhibitor
T5 construct: purchased Life Technologies (Invitrogen SelectScreen); Dyrk1A, Dyrk2 and CK2α in-house or gifts

MAPK12 (p38 gamma, ERK3) = molecular target: T6, MAPK12 (p38 gamma, ERK3) (Homo sapiens, UniProt P53778); assay: Selectivity panel MAPK12; type: biochemical; conditions: 5 µM inhibitor
T6 construct: purchased Life Technologies (Invitrogen SelectScreen); Dyrk1A, Dyrk2 and CK2α in-house or gifts
T6 sequence (P53778 whole entry): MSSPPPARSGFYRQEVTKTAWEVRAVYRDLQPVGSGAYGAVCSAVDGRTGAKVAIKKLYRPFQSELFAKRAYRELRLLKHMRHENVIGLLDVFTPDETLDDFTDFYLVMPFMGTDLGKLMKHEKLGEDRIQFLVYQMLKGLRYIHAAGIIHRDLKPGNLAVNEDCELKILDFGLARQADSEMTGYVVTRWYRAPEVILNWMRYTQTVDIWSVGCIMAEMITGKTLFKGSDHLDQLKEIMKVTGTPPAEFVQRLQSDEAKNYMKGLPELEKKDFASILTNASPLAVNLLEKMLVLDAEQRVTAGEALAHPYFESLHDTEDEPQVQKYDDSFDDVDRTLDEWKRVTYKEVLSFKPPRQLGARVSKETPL

MAPK8 (JNK1) = molecular target: T7, MAPK8 (JNK1) (Homo sapiens, UniProt P45983); assay: Selectivity panel MAPK8; type: biochemical; conditions: 5 µM inhibitor
T7 construct: purchased Life Technologies (Invitrogen SelectScreen); Dyrk1A, Dyrk2 and CK2α in-house or gifts
T7 sequence (P45983 whole entry): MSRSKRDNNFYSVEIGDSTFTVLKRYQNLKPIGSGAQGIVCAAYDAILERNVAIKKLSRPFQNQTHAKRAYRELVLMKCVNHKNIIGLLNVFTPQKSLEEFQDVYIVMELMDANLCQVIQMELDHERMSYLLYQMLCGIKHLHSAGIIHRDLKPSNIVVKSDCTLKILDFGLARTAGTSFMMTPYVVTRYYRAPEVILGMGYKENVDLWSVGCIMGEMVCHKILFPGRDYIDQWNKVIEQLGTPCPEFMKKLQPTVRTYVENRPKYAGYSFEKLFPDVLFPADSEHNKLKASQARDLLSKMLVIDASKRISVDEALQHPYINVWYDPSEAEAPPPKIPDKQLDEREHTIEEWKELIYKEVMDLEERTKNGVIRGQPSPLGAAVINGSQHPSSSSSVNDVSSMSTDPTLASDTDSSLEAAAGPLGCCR

MAPK9 (JNK2) = molecular target: T8, MAPK9 (JNK2) (Homo sapiens, UniProt P45984); assay: Selectivity panel MAPK9; type: biochemical; conditions: 5 µM inhibitor
T8 construct: purchased Life Technologies (Invitrogen SelectScreen); Dyrk1A, Dyrk2 and CK2α in-house or gifts

STK23 (MSSK1) = molecular target: T9, STK23 (MSSK1) (Homo sapiens, UniProt Q9UPE1); assay: Selectivity panel STK23; type: biochemical; conditions: 5 µM inhibitor
T9 construct: purchased Life Technologies (Invitrogen SelectScreen); Dyrk1A, Dyrk2 and CK2α in-house or gifts

MAP3K14 (NIK) = molecular target: T10, MAP3K14 (NIK) (Homo sapiens, UniProt Q99558); assay: Selectivity panel MAP3K14; type: biochemical; conditions: 5 µM inhibitor
T10 construct: purchased Life Technologies (Invitrogen SelectScreen); Dyrk1A, Dyrk2 and CK2α in-house or gifts

MAP2K1 (MEK1) = molecular target: T11, MAP2K1 (MEK1) (Homo sapiens, UniProt Q02750); assay: Selectivity panel MAP2K1; type: biochemical; conditions: 5 µM inhibitor
T11 construct: purchased Life Technologies (Invitrogen SelectScreen); Dyrk1A, Dyrk2 and CK2α in-house or gifts
T11 sequence (Q02750 whole entry): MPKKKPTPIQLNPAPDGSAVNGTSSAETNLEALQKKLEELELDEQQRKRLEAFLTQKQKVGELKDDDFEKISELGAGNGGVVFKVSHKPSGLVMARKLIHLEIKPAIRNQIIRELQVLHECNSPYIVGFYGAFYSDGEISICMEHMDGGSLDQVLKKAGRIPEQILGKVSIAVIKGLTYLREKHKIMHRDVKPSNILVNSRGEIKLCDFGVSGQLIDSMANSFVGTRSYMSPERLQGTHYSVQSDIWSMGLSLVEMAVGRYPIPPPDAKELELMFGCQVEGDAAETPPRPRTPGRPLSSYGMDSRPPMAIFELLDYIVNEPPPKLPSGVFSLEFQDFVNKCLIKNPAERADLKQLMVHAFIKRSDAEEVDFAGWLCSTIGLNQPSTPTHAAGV

MINK1 = molecular target: T12, MINK1 (Homo sapiens, UniProt Q8N4C8); assay: Selectivity panel MINK1; type: biochemical; conditions: 5 µM inhibitor
T12 construct: purchased Life Technologies (Invitrogen SelectScreen); Dyrk1A, Dyrk2 and CK2α in-house or gifts

[1] = molecular target: T13, (Homo sapiens, UniProt Q9UEW8); assay: Selectivity panel PASK (STLK3); type: biochemical; conditions: 5 µM inhibitor; listed under STE
T13 construct: purchased Life Technologies (Invitrogen SelectScreen); Dyrk1A, Dyrk2 and CK2α in-house or gifts

SGK (SGK1) = molecular target: T14, SGK (SGK1) (Homo sapiens, UniProt O00141); assay: Selectivity panel SGK; type: biochemical; conditions: 5 µM inhibitor
T14 construct: purchased Life Technologies (Invitrogen SelectScreen); Dyrk1A, Dyrk2 and CK2α in-house or gifts

PRKACA (PKA) = molecular target: T15, PRKACA (PKA) (Homo sapiens, UniProt P17612); assay: Selectivity panel PRKACA; type: biochemical; conditions: 5 µM inhibitor
T15 construct: purchased Life Technologies (Invitrogen SelectScreen); Dyrk1A, Dyrk2 and CK2α in-house or gifts

PRKCZ (PKC zeta) = molecular target: T16, PRKCZ (PKC zeta) (Homo sapiens, UniProt Q05513); assay: Selectivity panel PRKCZ; type: biochemical; conditions: 5 µM inhibitor
T16 construct: purchased Life Technologies (Invitrogen SelectScreen); Dyrk1A, Dyrk2 and CK2α in-house or gifts

PDK1 = molecular target: T17, PDK1 (Homo sapiens, UniProt O15530); assay: Selectivity panel PDK1; type: biochemical; conditions: 5 µM inhibitor
T17 construct: purchased Life Technologies (Invitrogen SelectScreen); Dyrk1A, Dyrk2 and CK2α in-house or gifts

MARK1 (MARK) = molecular target: T18, MARK1 (MARK) (Homo sapiens, UniProt Q9P0L2); assay: Selectivity panel MARK1; type: biochemical; conditions: 5 µM inhibitor
T18 construct: purchased Life Technologies (Invitrogen SelectScreen); Dyrk1A, Dyrk2 and CK2α in-house or gifts

CHEK1 (CHK1) = molecular target: T19, CHEK1 (CHK1) (Homo sapiens, UniProt O14757); assay: Selectivity panel CHEK1; type: biochemical; conditions: 5 µM inhibitor
T19 construct: purchased Life Technologies (Invitrogen SelectScreen); Dyrk1A, Dyrk2 and CK2α in-house or gifts

AMPK A1/B1/G1 = molecular target: T20, AMPK A1/B1/G1 (Homo sapiens, UniProt Q13131); assay: Selectivity panel AMPK; type: biochemical; conditions: 5 µM inhibitor
T20 construct: purchased Life Technologies (Invitrogen SelectScreen); Dyrk1A, Dyrk2 and CK2α in-house or gifts

MKNK1 (MNK1) = molecular target: T21, MKNK1 (MNK1) (Homo sapiens, UniProt Q9BUB5); assay: Selectivity panel MKNK1; type: biochemical; conditions: 5 µM inhibitor
T21 construct: purchased Life Technologies (Invitrogen SelectScreen); Dyrk1A, Dyrk2 and CK2α in-house or gifts
T21 sequence (Q9BUB5 whole entry): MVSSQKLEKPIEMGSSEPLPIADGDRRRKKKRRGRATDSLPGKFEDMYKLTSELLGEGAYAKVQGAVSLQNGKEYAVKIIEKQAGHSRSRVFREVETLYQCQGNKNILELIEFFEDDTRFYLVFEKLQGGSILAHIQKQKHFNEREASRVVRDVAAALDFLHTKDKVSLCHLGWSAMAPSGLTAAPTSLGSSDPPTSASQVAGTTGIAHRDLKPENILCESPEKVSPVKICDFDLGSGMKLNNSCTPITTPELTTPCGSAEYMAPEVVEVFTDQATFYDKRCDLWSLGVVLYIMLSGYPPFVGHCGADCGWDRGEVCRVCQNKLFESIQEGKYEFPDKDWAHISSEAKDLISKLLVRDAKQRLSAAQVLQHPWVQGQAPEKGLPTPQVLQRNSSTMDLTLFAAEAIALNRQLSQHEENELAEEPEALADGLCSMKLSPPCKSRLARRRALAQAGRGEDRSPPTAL

STK22B (TSSK2) = molecular target: T22, STK22B (TSSK2) (Homo sapiens, UniProt Q96PF2); assay: Selectivity panel STK22B; type: biochemical; conditions: 5 µM inhibitor
T22 construct: purchased Life Technologies (Invitrogen SelectScreen); Dyrk1A, Dyrk2 and CK2α in-house or gifts

PRKD1 (PKC mu, PKD1) = molecular target: T23, PRKD1 (PKC mu, PKD1) (Homo sapiens, UniProt Q15139); assay: Selectivity panel PRKD1; type: biochemical; conditions: 5 µM inhibitor
T23 construct: purchased Life Technologies (Invitrogen SelectScreen); Dyrk1A, Dyrk2 and CK2α in-house or gifts

PASK = molecular target: T24, PASK (Homo sapiens, UniProt Q96RG2); assay: Selectivity panel PASK (CAMK); type: biochemical; conditions: 5 µM inhibitor; listed under CAMK
T24 construct: purchased Life Technologies (Invitrogen SelectScreen); Dyrk1A, Dyrk2 and CK2α in-house or gifts

WEE1 = molecular target: T25, WEE1 (Homo sapiens, UniProt P30291); assay: Selectivity panel WEE1; type: biochemical; conditions: 5 µM inhibitor
T25 construct: purchased Life Technologies (Invitrogen SelectScreen); Dyrk1A, Dyrk2 and CK2α in-house or gifts

IKBKB (IKK beta) = molecular target: T26, IKBKB (IKK beta) (Homo sapiens, UniProt O14920); assay: Selectivity panel IKBKB; type: biochemical; conditions: 5 µM inhibitor
T26 construct: purchased Life Technologies (Invitrogen SelectScreen); Dyrk1A, Dyrk2 and CK2α in-house or gifts

TBK1 = molecular target: T27, TBK1 (Homo sapiens, UniProt Q9UHD2); assay: Selectivity panel TBK1; type: biochemical; conditions: 5 µM inhibitor
T27 construct: purchased Life Technologies (Invitrogen SelectScreen); Dyrk1A, Dyrk2 and CK2α in-house or gifts

PIK3CA/PIK3R1 = molecular target: T28, PIK3CA/PIK3R1 (Homo sapiens, UniProt P42336); assay: Selectivity panel PIK3CA/PIK3R1; type: biochemical; conditions: 5 µM inhibitor
T28 construct: purchased Life Technologies (Invitrogen SelectScreen); Dyrk1A, Dyrk2 and CK2α in-house or gifts

ZAK = molecular target: T29, ZAK (Homo sapiens, UniProt Q9NYL2); assay: Selectivity panel ZAK; type: biochemical; conditions: 5 µM inhibitor
T29 construct: purchased Life Technologies (Invitrogen SelectScreen); Dyrk1A, Dyrk2 and CK2α in-house or gifts

LIMK1 = molecular target: T30, LIMK1 (Homo sapiens, UniProt P53667); assay: Selectivity panel LIMK1; type: biochemical; conditions: 5 µM inhibitor
T30 construct: purchased Life Technologies (Invitrogen SelectScreen); Dyrk1A, Dyrk2 and CK2α in-house or gifts
T30 sequence (P53667 whole entry): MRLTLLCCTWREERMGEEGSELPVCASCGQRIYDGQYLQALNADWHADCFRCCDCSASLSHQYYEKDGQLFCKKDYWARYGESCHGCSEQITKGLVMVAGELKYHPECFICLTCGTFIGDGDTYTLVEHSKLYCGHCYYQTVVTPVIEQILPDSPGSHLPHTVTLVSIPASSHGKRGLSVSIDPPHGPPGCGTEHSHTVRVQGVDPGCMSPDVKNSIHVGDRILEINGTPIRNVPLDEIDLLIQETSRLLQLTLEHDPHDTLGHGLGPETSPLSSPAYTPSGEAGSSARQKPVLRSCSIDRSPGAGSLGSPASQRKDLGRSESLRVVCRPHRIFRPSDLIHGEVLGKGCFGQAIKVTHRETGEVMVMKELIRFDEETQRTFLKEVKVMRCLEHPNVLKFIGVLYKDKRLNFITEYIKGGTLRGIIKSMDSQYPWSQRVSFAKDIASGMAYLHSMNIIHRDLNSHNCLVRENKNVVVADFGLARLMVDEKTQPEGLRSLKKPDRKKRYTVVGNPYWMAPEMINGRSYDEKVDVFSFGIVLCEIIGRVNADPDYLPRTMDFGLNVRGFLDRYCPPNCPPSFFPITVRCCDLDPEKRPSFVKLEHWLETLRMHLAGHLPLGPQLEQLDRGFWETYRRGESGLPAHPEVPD

IRAK4 = molecular target: T31, IRAK4 (Homo sapiens, UniProt Q9NWZ3); assay: Selectivity panel IRAK4; type: biochemical; conditions: 5 µM inhibitor
T31 construct: purchased Life Technologies (Invitrogen SelectScreen); Dyrk1A, Dyrk2 and CK2α in-house or gifts

KDR (VEGFR2) = molecular target: T32, KDR (VEGFR2) (Homo sapiens, UniProt P35968); assay: Selectivity panel KDR; type: biochemical; conditions: 5 µM inhibitor
T32 construct: purchased Life Technologies (Invitrogen SelectScreen); Dyrk1A, Dyrk2 and CK2α in-house or gifts

RET = molecular target: T33, RET (Homo sapiens, UniProt P07949); assay: Selectivity panel RET; type: biochemical; conditions: 5 µM inhibitor
T33 construct: purchased Life Technologies (Invitrogen SelectScreen); Dyrk1A, Dyrk2 and CK2α in-house or gifts

TNK2 (ACK) = molecular target: T34, TNK2 (ACK) (Homo sapiens, UniProt Q07912); assay: Selectivity panel TNK2; type: biochemical; conditions: 5 µM inhibitor
T34 construct: purchased Life Technologies (Invitrogen SelectScreen); Dyrk1A, Dyrk2 and CK2α in-house or gifts

ABL1 = molecular target: T35, ABL1 (Homo sapiens, UniProt P00519); assay: Selectivity panel ABL1; type: biochemical; conditions: 5 µM inhibitor
T35 construct: purchased Life Technologies (Invitrogen SelectScreen); Dyrk1A, Dyrk2 and CK2α in-house or gifts

AXL = molecular target: T36, AXL (Homo sapiens, UniProt P30530); assay: Selectivity panel AXL; type: biochemical; conditions: 5 µM inhibitor
T36 construct: purchased Life Technologies (Invitrogen SelectScreen); Dyrk1A, Dyrk2 and CK2α in-house or gifts

IGF1R = molecular target: T37, IGF1R (Homo sapiens, UniProt P08069); assay: Selectivity panel IGF1R; type: biochemical; conditions: 5 µM inhibitor
T37 construct: purchased Life Technologies (Invitrogen SelectScreen); Dyrk1A, Dyrk2 and CK2α in-house or gifts
T37 sequence (P08069 31-1367): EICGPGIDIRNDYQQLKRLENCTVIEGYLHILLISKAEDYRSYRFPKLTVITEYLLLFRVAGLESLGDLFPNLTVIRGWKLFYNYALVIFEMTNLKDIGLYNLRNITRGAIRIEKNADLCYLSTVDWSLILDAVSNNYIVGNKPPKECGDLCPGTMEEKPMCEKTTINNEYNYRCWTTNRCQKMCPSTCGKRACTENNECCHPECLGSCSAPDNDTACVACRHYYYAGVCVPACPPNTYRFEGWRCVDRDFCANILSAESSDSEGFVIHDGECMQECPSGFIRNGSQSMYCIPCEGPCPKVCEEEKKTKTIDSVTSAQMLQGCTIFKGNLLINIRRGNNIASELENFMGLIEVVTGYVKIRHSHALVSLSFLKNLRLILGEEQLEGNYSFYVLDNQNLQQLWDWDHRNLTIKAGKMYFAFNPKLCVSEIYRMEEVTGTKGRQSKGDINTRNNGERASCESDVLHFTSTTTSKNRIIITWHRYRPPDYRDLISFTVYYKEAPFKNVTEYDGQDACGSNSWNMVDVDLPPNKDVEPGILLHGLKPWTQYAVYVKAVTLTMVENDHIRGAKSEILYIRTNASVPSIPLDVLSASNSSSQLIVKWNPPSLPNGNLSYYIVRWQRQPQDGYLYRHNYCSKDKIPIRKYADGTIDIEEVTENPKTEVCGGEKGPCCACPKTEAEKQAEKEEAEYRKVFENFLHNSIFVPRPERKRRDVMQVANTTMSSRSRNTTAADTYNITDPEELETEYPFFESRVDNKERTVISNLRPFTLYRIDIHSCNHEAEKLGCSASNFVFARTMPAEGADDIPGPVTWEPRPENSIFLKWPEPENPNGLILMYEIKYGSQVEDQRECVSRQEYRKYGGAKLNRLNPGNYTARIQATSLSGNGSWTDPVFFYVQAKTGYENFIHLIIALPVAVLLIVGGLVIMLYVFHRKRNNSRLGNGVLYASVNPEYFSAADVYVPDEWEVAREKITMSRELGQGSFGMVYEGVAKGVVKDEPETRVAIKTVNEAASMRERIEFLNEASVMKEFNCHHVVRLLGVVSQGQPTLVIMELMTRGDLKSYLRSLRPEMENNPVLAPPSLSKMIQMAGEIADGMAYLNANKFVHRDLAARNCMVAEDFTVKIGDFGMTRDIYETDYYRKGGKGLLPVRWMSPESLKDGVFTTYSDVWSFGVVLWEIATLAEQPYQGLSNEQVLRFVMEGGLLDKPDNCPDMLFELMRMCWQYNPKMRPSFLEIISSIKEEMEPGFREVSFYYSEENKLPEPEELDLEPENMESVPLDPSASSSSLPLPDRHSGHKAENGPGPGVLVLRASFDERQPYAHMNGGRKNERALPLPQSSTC

MET (cMet) = molecular target: T38, MET (cMet) (Homo sapiens, UniProt P08581); assay: Selectivity panel MET; type: biochemical; conditions: 5 µM inhibitor
T38 construct: purchased Life Technologies (Invitrogen SelectScreen); Dyrk1A, Dyrk2 and CK2α in-house or gifts
T38 sequence (P08581 25-1390): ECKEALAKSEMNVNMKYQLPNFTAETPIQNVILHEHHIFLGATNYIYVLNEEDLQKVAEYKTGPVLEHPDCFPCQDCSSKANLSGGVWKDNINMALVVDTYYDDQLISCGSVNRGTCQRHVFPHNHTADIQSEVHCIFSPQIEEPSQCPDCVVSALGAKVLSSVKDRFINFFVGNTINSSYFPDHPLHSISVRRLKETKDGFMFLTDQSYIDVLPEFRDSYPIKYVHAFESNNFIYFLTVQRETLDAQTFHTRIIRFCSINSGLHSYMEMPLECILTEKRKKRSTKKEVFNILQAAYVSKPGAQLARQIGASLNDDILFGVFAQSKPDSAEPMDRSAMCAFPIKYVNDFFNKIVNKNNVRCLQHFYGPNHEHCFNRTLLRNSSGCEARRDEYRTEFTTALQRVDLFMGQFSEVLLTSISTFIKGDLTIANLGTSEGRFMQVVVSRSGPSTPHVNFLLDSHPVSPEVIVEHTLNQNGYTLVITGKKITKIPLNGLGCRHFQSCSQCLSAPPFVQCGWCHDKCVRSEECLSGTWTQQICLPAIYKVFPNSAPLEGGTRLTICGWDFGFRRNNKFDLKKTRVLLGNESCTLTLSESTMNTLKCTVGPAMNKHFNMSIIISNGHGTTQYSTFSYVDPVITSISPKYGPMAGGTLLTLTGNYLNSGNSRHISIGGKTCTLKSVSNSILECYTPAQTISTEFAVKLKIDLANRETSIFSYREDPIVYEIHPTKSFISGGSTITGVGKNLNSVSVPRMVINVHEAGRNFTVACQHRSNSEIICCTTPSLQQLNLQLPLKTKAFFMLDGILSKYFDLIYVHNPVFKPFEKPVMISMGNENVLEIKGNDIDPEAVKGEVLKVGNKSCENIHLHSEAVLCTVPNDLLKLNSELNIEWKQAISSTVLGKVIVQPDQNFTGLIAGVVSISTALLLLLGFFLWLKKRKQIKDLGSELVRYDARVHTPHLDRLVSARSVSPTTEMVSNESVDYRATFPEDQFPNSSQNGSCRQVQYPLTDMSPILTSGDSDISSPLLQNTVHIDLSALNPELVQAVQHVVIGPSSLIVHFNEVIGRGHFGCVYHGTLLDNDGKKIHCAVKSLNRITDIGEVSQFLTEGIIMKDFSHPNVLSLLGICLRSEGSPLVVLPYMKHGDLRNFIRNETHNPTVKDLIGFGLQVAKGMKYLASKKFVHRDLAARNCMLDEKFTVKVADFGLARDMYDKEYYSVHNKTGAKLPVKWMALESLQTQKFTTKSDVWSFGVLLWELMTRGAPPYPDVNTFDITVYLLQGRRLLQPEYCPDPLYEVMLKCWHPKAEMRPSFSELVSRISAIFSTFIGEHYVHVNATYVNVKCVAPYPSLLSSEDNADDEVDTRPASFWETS

SMILES: c1cncc(-c2csc(-c3cncs3)c2)c1 [Compound 48, 3-[5-(1,3-thiazol-5-yl)thiophen-3-yl]pyridine]
- caspase-3/7 activity (U2OS osteosarcoma cells): clear increase
- inhibition at 5 µM (DYRK3): 69%
- inhibition at 5 µM (DYRK4): 12%
- inhibition at 5 µM (CLK4): 99%
- inhibition at 5 µM (MAPK1 (ERK2)): 1%
- inhibition at 5 µM (MAPK10 (JNK3)): 2%
- inhibition at 5 µM (MAPK12 (p38 gamma, ERK3)): 3%
- inhibition at 5 µM (MAPK8 (JNK1)): 5%
- inhibition at 5 µM (MAPK9 (JNK2)): -6%
- inhibition at 5 µM (STK23 (MSSK1)): 0%
- inhibition at 5 µM (MAP3K14 (NIK)): 5%
- inhibition at 5 µM (MAP2K1 (MEK1)): 2%
- inhibition at 5 µM (MINK1): 19%
- inhibition at 5 µM [1]: 27%
- inhibition at 5 µM (SGK (SGK1)): 22%
- inhibition at 5 µM (PRKACA (PKA)): 3%
- inhibition at 5 µM (PRKCZ (PKC zeta)): -25%
- inhibition at 5 µM (PDK1): 7%
- inhibition at 5 µM (MARK1 (MARK)): 1%
- inhibition at 5 µM (CHEK1 (CHK1)): 7%
- inhibition at 5 µM (AMPK A1/B1/G1): -5%
- inhibition at 5 µM (MKNK1 (MNK1)): 47%
- inhibition at 5 µM (STK22B (TSSK2)): -2%
- inhibition at 5 µM (PRKD1 (PKC mu, PKD1)): -5%
- inhibition at 5 µM (PASK): 27%
- inhibition at 5 µM (WEE1): 10%
- inhibition at 5 µM (IKBKB (IKK beta)): 12%
- inhibition at 5 µM (TBK1): 8%
- inhibition at 5 µM (PIK3CA/PIK3R1): 12%
- inhibition at 5 µM (ZAK): 11%
- inhibition at 5 µM (LIMK1): 4%
- inhibition at 5 µM (IRAK4): -11%
- inhibition at 5 µM (KDR (VEGFR2)): 10%
- inhibition at 5 µM (RET): 1%
- inhibition at 5 µM (TNK2 (ACK)): 8%
- inhibition at 5 µM (ABL1): 6%
- inhibition at 5 µM (AXL): -11%
- inhibition at 5 µM (IGF1R): 3%
- inhibition at 5 µM (MET (cMet)): -12%
